Bounds are passed on as bounds.

The target in the test is T1, hSCN3A (Homo sapiens, UniProt Q9NY46).
T1 construct: expressed in transfected cells
T1 sequence (Q9NY46 whole entry): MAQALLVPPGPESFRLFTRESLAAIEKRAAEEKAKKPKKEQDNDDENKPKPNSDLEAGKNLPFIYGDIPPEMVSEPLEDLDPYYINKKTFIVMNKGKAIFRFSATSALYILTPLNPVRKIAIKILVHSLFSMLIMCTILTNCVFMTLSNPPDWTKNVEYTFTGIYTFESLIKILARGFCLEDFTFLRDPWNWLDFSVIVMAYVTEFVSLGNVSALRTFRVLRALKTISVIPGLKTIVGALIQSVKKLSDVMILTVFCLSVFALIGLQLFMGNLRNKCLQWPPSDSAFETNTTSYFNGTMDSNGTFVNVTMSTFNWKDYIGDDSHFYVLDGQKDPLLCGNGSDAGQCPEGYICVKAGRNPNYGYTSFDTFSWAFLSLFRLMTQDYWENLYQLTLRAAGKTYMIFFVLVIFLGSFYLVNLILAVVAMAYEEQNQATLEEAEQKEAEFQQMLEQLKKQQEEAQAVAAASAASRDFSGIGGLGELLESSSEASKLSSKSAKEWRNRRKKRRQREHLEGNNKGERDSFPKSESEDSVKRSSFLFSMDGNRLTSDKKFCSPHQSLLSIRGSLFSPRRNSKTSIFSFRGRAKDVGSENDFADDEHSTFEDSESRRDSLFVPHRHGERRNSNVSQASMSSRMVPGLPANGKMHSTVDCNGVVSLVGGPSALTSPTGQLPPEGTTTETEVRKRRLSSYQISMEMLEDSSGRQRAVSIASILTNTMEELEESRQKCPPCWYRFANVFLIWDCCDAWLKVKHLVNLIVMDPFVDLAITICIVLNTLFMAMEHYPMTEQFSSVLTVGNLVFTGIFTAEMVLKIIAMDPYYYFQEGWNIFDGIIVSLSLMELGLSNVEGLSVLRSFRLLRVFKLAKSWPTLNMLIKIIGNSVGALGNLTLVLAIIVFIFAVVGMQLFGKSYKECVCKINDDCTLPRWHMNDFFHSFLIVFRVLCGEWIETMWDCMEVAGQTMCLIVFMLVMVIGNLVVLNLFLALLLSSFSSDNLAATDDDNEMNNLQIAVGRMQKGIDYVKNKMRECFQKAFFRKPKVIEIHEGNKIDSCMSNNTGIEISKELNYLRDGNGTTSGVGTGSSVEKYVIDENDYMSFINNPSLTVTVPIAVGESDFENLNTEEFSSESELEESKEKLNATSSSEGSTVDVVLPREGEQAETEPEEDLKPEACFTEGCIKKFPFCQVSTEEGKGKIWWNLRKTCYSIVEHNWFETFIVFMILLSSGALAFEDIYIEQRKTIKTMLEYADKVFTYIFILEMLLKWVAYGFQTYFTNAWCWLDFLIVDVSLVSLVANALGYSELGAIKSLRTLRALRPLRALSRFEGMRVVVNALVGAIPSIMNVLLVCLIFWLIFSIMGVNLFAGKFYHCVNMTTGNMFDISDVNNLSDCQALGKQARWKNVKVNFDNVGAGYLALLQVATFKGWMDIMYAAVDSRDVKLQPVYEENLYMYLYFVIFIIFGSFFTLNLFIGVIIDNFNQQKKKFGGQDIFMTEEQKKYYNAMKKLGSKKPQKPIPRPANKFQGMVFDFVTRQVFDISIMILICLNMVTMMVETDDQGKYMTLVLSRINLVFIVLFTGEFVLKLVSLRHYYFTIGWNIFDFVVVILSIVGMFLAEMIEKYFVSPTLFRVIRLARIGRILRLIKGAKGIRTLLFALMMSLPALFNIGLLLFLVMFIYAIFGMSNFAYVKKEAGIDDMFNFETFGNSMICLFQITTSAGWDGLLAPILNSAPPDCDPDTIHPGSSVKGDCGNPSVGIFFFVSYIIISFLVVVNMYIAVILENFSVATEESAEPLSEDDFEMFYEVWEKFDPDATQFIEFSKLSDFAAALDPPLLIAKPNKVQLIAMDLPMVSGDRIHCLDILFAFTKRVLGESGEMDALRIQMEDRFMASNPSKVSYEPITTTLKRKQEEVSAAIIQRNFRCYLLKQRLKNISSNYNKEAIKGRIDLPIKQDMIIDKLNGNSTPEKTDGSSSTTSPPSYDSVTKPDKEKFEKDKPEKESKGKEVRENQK
Description: SCN3A inhibitory activity in HEK cells stably expressing hSCN3A (whole-cell patch clamp / radiotracer efflux HTS). As to conditions: HEK cells stably transfected with hSCN3A. It is filed as cell-based.
In the case of `O=S(=O)(Nc1nccs1)c1ccc(-c2nnc(Cc3cccc(Cl)c3)[nH]2)cc1` [Compound 96, 4-[5-(3-Chloro-benzyl)-4H-[1,2,4]triazol-3-yl]-N-thiazol-2-yl-benzenesulfonamide], the IC50 – broadly, the concentration that inhibits the measured activity by half – was 100 to 500 nM.
`CC1(c2ccc(S(=O)(=O)Nc3nccs3)cc2)C(=O)NC(=O)N1Cc1ccc(Cl)c(Cl)c1` (stereo not shown) [Compound 99, 4-[3-(3,4-Dichloro-benzyl)-4-methyl-2,5-dioxo-imidazolidin-4-yl]-N-thiazol-2-yl-benzenesulfonamide] gave an IC50 greater than 1000 nM.
`COc1ccc(CCc2c[nH]c(-c3ccc(S(=O)(=O)Nc4nccs4)cc3)n2)cc1Cl` [Compound 18, 4-{4-[2-(3-Chloro-4-methoxy-phenyl)-ethyl]-1H-imidazol-2-yl}-N-thiazol-2-yl-benzenesulfonamide] displayed an IC50 of 100 to 500 nM.
On to `O=S(=O)(Nc1nccs1)c1ccc(-c2nc3ccccc3[nH]2)cc1` [Compound 10, 4-(1H-Benzoimidazol-2-yl)-N-thiazol-2-yl-benzenesulfonamide], for which the IC50 was greater than 1000 nM.
Compound `O=S(=O)(NCc1nccs1)c1ccc(-c2nc(Cc3cc(F)cc(F)c3)c[nH]2)cc1` [Compound 98, 4-[4-(3,5-Difluoro-benzyl)-1H-imidazol-2-yl]-N-thiazol-2-ylmethyl-benzenesulfonamide] had an IC50 greater than 1000 nM.
Compound `O=S(=O)(Nc1nccs1)c1ccc(-c2nc(Cc3ccc(C(F)(F)F)cc3)c[nH]2)cc1` [Compound 34, N-Thiazol-2-yl-4-[4-(4-trifluoromethyl-benzyl)-1H-imidazol-2-yl]-benzenesulfonamide] returned an IC50 of 100 to 500 nM.
`O=S(=O)(Nc1nccs1)c1ccc(-c2nc(-c3ncc(C(F)(F)F)cc3Cl)n[nH]2)cc1F` [Compound 116, 4-[5-(3-Chloro-5-trifluoromethyl-pyridin-2-yl)-2H-[1,2,4]triazol-3-yl]-2-fluoro-n-thiazol-2-yl-benzenesulfonamide] had an IC50 of 100 to 500 nM.
Turning to `O=S(=O)(Nc1nccs1)c1ccc(-c2nc(C3(c4ccc(Cl)cc4)CCC3)c[nH]2)cc1` [Compound 25, 4-{4-[1-(4-Chloro-phenyl)-cyclobutyl]-1H-imidazol-2-yl}-N-thiazol-2-yl-benzenesulfonamide], the IC50 was in the range of 100 to 500 nM.
In turn, `Cc1ccc(Cc2c[nH]c(-c3ccc(S(=O)(=O)Nc4nccs4)cc3)n2)cc1` [Compound 32, 4-[4-(4-Methyl-benzyl)-1H-imidazol-2-yl]-N-thiazol-2-yl-benzenesulfonamide] gave an IC50 greater than 1000 nM.
Under `O=S(=O)(Nc1nccs1)c1ccc(-c2nc(CCCOc3ccc(Cl)cc3)c[nH]2)cc1` [Compound 9, 4-{4-[3-(4-Chloro-phenoxy)-propyl]-1H-imidazol-2-yl}-N-thiazol-2-yl-benzenesulfonamide] stands 500 to 1000 nM; under `CC1(c2ccc(S(=O)(=O)Nc3nccs3)cc2)NC(=O)N(Cc2ccc(Cl)c(Cl)c2)C1=O` (stereo not shown) [Compound 100, 4-[1-(3,4-Dichloro-benzyl)-4-methyl-2,5-dioxo-imidazolidin-4-yl]-N-thiazol-2-yl-benzenesulfonamide], greater than 1000 nM; under `O=S(=O)(Nc1nccs1)c1ccc(-c2nc(Cc3ccccc3F)c[nH]2)cc1` [Compound 35, 4-[4-(2-Fluoro-benzyl)-1H-imidazol-2-yl]-N-thiazol-2-yl-benzenesulfonamide], 500 to 1000 nM.
Consider `O=S(=O)(Nc1nccs1)c1ccc(-c2nc(Cc3ccc(F)cc3Cl)c[nH]2)cc1` [Compound 13, 4-[4-(2-Chloro-4-fluoro-benzyl)-1H-imidazol-2-yl]-N-thiazol-2-yl-benzenesulfonamide], for which the IC50 was less than 100 nM.
Under `O=S(=O)(Nc1nccs1)c1ccc(-c2cc(CCCOc3ccc(Cl)cc3Cl)[nH]n2)cc1` [Compound 123, 4-{5-[3-(2,4-Dichloro-phenoxy)-propyl]-1H-pyrazol-3-yl}-N-thiazol-2-yl-benzenesulfonamide] stands 100 to 500 nM; under `O=S(=O)(Nc1nccs1)c1ccc(-c2nnc(C(c3ccccc3)c3ccccc3)[nH]2)cc1` [Compound 3, 4-(5-Benzhydryl-4H-[1,2,4]triazol-3-yl)-N-thiazol-2-yl-benzenesulfonamide], 100 to 500 nM; under `O=S(=O)(Nc1nccs1)c1ccc(-c2nc(Cc3cccc(Cl)c3)c[nH]2)cc1` [Compound 16, 4-[4-(3-Chloro-benzyl)-1H-imidazol-2-yl]-N-thiazol-2-yl-benzenesulfonamide], less than 100 nM.
On to `O=S(=O)(Nc1nccs1)c1ccc(-c2nc(Cc3ccc(F)c(F)c3)c[nH]2)cc1` [Compound 23, 4-[4-(3,4-Difluoro-benzyl)-1H-imidazol-2-yl]-N-thiazol-2-yl-benzenesulfonamide], for which the IC50 is 100 to 500 nM.
`O=S(=O)(Nc1nccs1)c1ccc(-c2nc(COc3c(Cl)cccc3Cl)n[nH]2)cc1F` [Compound 115, 4-[5-(2,6-Dichloro-phenoxymethyl)-2H-[1,2,4]triazol-3-yl]-2-fluoro-n-thiazol-2-yl-benzenesulfonamide]: the IC50 lay in the range of 100 to 500 nM.
As to `COc1ccc(C2(c3c[nH]c(-c4ccc(S(=O)(=O)Nc5nccs5)cc4)n3)CC2)cc1` [Compound 44, 4-{4-[1-(4-Methoxy-phenyl)-cyclopropyl]-1H-imidazol-2-yl}-N-thiazol-2-yl-benzenesulfonamide], the IC50 was 500 to 1000 nM.
For `O=S(=O)(Nc1nccs1)c1ccc(-c2nc(CCc3cccc(Cl)c3)c[nH]2)cc1` [Compound 28, 4-{4-[2-(3-Chloro-phenyl)-ethyl]-1H-imidazol-2-yl}-N-thiazol-2-yl-benzenesulfonamide], the IC50 was 100 to 500 nM.
Take `O=S(=O)(Nc1nccs1)c1ccc(-c2ncc(Cc3ccc(Cl)cc3)[nH]2)cc1` [Compound 8, 4-[5-(4-Chloro-benzyl)-1H-imidazol-2-yl]-N-thiazol-2-yl-benzenesulfonamide]: the IC50 is 100 to 500 nM.
As to `O=S(=O)(Nc1nccs1)c1ccc(-c2nc(C3CCC(c4ccc(Cl)cc4)CC3)c[nH]2)cc1` (stereo not shown) [Compound 12, 4-{4-[4-(4-Chloro-phenyl)-cyclohexyl]-1H-imidazol-2-yl}-N-thiazol-2-yl-benzenesulfonamide], the IC50 was less than 100 nM.
On to `O=S(=O)(Nc1nccs1)c1ccc(NCC(c2ccccc2)c2ccccc2)nc1` [Compound 124, 6-(2,2-Diphenyl-ethylamino)-pyridine-3-sulfonic acid thiazol-2-ylamide], for which the IC50 was 500 to 1000 nM.
In the case of `O=S(=O)(Nc1nccs1)c1ccc(-c2nc(COc3ncc(C(F)(F)F)cc3Cl)n[nH]2)cc1` [Compound 117, 4-[5-(3-Chloro-5-trifluoromethyl-pyridin-2-yloxymethyl)-2H-[1,2,4]triazol-3-yl]-n-thiazol-2-yl-benzenesulfonamide], the IC50 was 500 to 1000 nM.
The compound `O=S(=O)(Nc1nccs1)c1ccc(-c2ncc(C(c3ccccc3)c3ccccc3)[nH]2)cc1` [Compound 6, 4-(5-Benzhydryl-1H-imidazol-2-yl)-N-thiazol-2-yl-benzenesulfonamide] had a concentration for half-maximal inhibition (IC50) of 100 to 500 nM.
Consider `Cc1ccc(C2(c3c[nH]c(-c4ccc(S(=O)(=O)Nc5nccs5)cc4)n3)CCCCC2)cc1` [Compound 21, N-Thiazol-2-yl-4-[4-(1-p-tolyl-cyclohexyl)-1H-imidazol-2-yl]-benzenesulfonamide], for which the IC50 fell in the range of 100 to 500 nM.
The compound `O=S(=O)(Nc1nccs1)c1ccc(-c2nc(CCCOc3ccc(Cl)cc3Cl)c[nH]2)cc1` [Compound 11, 4-{4-[3-(2,4-Dichloro-phenoxy)-propyl]-1H-imidazol-2-yl}-N-thiazol-2-yl-benzenesulfonamide] displayed an IC50 of less than 100 nM.
The compound `O=S(=O)(Nc1nccs1)c1ccc(-c2nc(COc3c(Cl)cccc3Cl)n[nH]2)cc1` [Compound 119, 4-[5-(2,6-Dichloro-phenoxymethyl)-2H-[1,2,4]triazol-3-yl]-n-thiazol-2-yl-benzenesulfonamide] returned an IC50 greater than 1000 nM.
Compound `O=S(=O)(Nc1nccs1)c1ccc(-c2nc(CCc3ccc(F)cc3)c[nH]2)cc1` [Compound 15, 4-{4-[2-(4-Fluoro-phenyl)-ethyl]-1H-imidazol-2-yl}-N-thiazol-2-yl-benzenesulfonamide] showed an IC50 of 100 to 500 nM.
Regarding `O=S(=O)(Nc1nccs1)c1ccc(-c2nc(Cc3ccc4c(c3)OCO4)c[nH]2)cc1` [Compound 49, 4-(4-Benzo[1,3]dioxol-5-ylmethyl-1H-imidazol-2-yl)-N-thiazol-2-yl-benzenesulfonamide], the concentration for half-maximal inhibition (IC50) is 500 to 1000 nM.
In turn, `O=S(=O)(Nc1nccs1)c1ccc(-c2nc(CCc3cc(C(F)(F)F)ccc3C(F)(F)F)c[nH]2)cc1` [Compound 22, 4-{4-[2-(2,5-Bis-trifluoromethyl-phenyl)-ethyl]-1H-imidazol-2-yl}-N-thiazol-2-yl-benzenesulfonamide] had an IC50 of 100 to 500 nM.
With `Cc1cccc(Cc2c[nH]c(-c3ccc(S(=O)(=O)Nc4nccs4)cc3)n2)c1` [Compound 27, 4-[4-(3-Methyl-benzyl)-1H-imidazol-2-yl]-N-thiazol-2-yl-benzenesulfonamide], the IC50 lay in the range of 100 to 500 nM.
Compound `CS(=O)(=O)c1ccc(Cc2c[nH]c(-c3ccc(S(=O)(=O)Nc4nccs4)cc3)n2)cc1` [Compound 54, 4-[4-(4-Methanesulfonyl-benzyl)-1H-imidazol-2-yl]-N-thiazol-2-yl-benzenesulfonamide] had a half-maximal inhibitory concentration (IC50) greater than 1000 nM.
With `O=S(=O)(Nc1nccs1)c1ccc(-c2nc(Cc3ccc(Cl)cc3)n[nH]2)cc1F` [Compound 114, 4-[5-(4-Chloro-benzyl)-2H-[1,2,4]triazol-3-yl]-2-fluoro-n-thiazol-2-yl-benzenesulfonamide], the 50% inhibitory concentration (IC50) was less than 100 nM.
As for `O=S(=O)(Nc1nccs1)c1ccc(-c2nnc(Cc3ccc(Cl)c(Cl)c3)[nH]2)cc1` [Compound 95, 4-[5-(3,4-Dichloro-benzyl)-4H-[1,2,4]triazol-3-yl]-N-thiazol-2-yl-benzenesulfonamide], the IC50 was less than 100 nM.
As for `O=S(=O)(Nc1nccs1)c1ccc(-c2nc(Cc3ccc(Oc4ccccc4)cc3)c[nH]2)cc1` [Compound 42, 4-[4-(4-Phenoxy-benzyl)-1H-imidazol-2-yl]-N-thiazol-2-yl-benzenesulfonamide], the IC50 is less than 100 nM.
Compound `Cc1nc(-c2ccc(S(=O)(=O)Nc3nccs3)cc2)[nH]c1-c1ccccc1` [Compound 4, 4-(4-Methyl-5-phenyl-1H-imidazol-2-yl)-N-thiazol-2-yl-benzenesulfonamide] displayed an IC50 of 500 to 1000 nM.
